Literature values as cited in patent US20080003608A1, “Highly Specific Polyclonal Antibodies of Individual Core Histone and Uses Thereof” (priority 2004, published 2008).

Biological target: T1, p300 (Homo sapiens, UniProt Q09472)
T1 construct: lane 3 curcumin (75 μM) treated cells, lane 4, curcumin (100 μM) treated cells; endogenous in cells
Settings: reference (2)

T1 sequence (Q09472 whole entry, species assumed): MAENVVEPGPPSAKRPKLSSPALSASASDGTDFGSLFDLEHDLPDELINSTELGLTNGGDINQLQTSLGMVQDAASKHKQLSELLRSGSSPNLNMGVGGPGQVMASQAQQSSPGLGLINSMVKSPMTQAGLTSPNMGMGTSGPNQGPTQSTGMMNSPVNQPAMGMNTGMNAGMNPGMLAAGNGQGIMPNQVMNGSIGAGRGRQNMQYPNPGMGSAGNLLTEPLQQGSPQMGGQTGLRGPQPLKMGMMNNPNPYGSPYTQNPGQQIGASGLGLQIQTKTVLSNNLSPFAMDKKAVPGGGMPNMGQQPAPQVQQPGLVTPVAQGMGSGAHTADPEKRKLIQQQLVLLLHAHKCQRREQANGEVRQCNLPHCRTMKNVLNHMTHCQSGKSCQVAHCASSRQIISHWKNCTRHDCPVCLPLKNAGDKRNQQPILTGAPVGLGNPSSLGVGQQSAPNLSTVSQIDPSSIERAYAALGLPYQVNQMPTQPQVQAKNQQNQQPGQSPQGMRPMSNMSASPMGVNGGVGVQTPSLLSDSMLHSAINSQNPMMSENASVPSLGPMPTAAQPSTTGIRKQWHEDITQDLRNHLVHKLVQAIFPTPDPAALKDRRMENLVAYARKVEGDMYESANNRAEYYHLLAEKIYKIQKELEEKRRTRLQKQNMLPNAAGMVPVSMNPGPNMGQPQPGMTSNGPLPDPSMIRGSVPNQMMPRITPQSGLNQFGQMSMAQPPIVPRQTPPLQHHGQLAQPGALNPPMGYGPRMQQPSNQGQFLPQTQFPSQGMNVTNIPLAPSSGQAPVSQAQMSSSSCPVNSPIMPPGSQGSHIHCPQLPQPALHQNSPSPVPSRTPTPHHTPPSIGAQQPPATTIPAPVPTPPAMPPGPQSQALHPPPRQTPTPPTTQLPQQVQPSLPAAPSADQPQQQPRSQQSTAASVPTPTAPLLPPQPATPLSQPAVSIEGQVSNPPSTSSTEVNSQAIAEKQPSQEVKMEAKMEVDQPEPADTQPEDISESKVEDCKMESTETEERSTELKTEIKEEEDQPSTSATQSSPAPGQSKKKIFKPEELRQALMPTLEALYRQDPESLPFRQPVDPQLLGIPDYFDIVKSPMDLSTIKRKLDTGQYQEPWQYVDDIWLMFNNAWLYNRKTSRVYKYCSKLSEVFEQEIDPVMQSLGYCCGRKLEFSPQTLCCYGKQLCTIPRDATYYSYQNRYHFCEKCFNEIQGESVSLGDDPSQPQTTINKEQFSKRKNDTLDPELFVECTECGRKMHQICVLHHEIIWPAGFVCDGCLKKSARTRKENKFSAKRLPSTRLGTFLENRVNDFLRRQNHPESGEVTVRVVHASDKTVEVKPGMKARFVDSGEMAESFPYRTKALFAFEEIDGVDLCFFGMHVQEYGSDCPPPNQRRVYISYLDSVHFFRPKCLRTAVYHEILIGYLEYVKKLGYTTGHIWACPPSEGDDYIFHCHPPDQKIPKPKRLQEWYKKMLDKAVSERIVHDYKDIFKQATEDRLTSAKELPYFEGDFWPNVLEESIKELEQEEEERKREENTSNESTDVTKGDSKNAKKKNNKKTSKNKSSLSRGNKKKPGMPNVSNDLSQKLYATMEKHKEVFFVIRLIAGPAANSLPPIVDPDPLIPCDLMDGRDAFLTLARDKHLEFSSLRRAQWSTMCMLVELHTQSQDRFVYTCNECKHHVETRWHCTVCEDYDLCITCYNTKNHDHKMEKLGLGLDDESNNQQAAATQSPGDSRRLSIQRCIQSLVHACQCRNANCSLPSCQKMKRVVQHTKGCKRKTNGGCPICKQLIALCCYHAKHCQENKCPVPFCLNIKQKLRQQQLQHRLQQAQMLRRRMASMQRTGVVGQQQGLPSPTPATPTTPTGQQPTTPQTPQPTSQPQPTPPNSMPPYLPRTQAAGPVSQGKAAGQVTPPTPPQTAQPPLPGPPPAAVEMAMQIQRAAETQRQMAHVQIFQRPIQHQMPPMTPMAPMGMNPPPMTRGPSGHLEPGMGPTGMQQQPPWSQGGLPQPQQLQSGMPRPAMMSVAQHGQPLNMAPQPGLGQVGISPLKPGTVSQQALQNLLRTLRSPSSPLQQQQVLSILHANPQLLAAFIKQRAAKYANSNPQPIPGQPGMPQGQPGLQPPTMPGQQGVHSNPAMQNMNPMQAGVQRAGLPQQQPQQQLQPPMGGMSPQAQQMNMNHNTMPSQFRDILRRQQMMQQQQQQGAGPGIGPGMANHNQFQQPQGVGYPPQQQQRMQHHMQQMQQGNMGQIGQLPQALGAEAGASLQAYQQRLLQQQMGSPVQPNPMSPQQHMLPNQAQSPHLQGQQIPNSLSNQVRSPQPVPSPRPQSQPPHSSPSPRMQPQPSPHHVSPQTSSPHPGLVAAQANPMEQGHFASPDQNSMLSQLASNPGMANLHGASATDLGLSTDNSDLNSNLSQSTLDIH

COc1cc(/C=C/C(=O)CC(=O)/C=C/c2ccc(O)c(OC)c2)ccc1O [Curcumin]
HAT inhibition: potent p300-specific HAT inhibitor
